Here are results for 3 compounds from publication PMC11374660, “The novel family of Warbicin® compounds inhibits glucose uptake both in yeast and human cells and restrains cancer cell proliferation” (Frontiers in Oncology, 2024).

One may read the Ki as the equilibrium dissociation constant of an inhibitor or competing ligand from its target.

In one series the test system is yeast tps1Δ strain. In words: Growth (rescue) of the yeast tps1Δ strain on galactose with or without glucose. Type of series: cell-based, S. cerevisiae. Conditions: 100 µM, 2.5 mM glucose. The method, then: Growth curves were made by measuring OD595 in a 96-well plate using the Multiskan™ FC Microplate Photometer (Thermo Fisher Scientific). Typically, for tps1Δ rescue experiments, cells were (pre)grown in Complete Synthetic medium containing 110 mM galactose. Compounds were always added 10 min prior to glucose addition to ensure maximal interaction between the cells and compounds. Cells originating from the preculture were harvested, washed in medium without sugar, after which they were resuspended to an OD of 0.1 in 200 µL of the appropriate medium. At least three technical replicates were included per condition. OD595 was measured at 30°C every 30 min with a 10-min shaking interval.

Series [1] has as its system A549 lung adenocarcinoma cells. In words: Proliferation of A549 lung adenocarcinoma cells. It counts as cell-based, human. The following applies: for Selected from primary screen for growth inhibition of A549 cells at 50 µM: RPMI 1 mM glucose; for relative potency in reducing maximal growth rate of A549 cells: 1 mM glucose, 6.25-50 µM; for Selected for having an IC50 ratio (10 mM glucose : 1 mM glucose) of A549 growth higher than WBC-A: ratio of IC50 on 10 mM and 1 mM glucose, compared to WBC-A. The method, then: (§1) For both adherent A549 and MCF10A H-RAS^V12 cell lines, growth curves were established using the IncuCyte® ZOOM technology. By collecting phase contrast images, the IncuCyte® software provides a calculated confluency percentage from which growth curves can be deducted. The cell number/density was measured by calculating the confluency of phase objects (cells) sticking on the bottom of the well. Cells were seeded at a density of 1000 - 1500 cells/well in a Nunc-Edge™ 96-well plate (Thermo Fisher Scientific) and growth was typically measured over 3 to 5 days. For the measurement of apoptosis induction using the MCF10A H-RAS^V12 cell line, the IncuCyte® Caspase-3/7 green dye was added to the medium in the recommended concentration at the beginning of the growth curve experiment. Apoptosis was detected by taking fluorescent images by excitation at 488 nm followed by IncuCyte® software analysis. Cell growth of the KMS-12-PE multiple myeloma cell line, which grows in suspension, was measured by manual cell counting. Cells were initially seeded at a density of 10^4 cells/well and incubated for 4 days after which the cell number was counted. For all cell lines, the same medium used for pregrowth was also used for the growth curve experiment, albeit with different glucose concentrations depending on the experimental design. With compound administration, the final concentration of DMSO never exceeded 0.1%. Typically, at least four technical repeats were included per condition.

Series [2] deals with 2-deoxyglucose uptake in A549 lung adenocarcinoma cells. Nature of the series: 2-deoxyglucose uptake in A549 lung adenocarcinoma cells. Type of series: cell-based, human. Conditions: for Ki: read-out: Ki for 2-deoxyglucose uptake (Dixon plot). The method, then: Zero-trans glucose uptake in A549 cells was approximated by measuring the uptake of [1,2-^3H]2-deoxyglucose. For this purpose, A549 cells were pregrown in RPMI medium containing 10 mM glucose in a 24-well plate to a cell density of around 100,000 cells/well. Prior to adding radioactive label, cells were gently washed twice in Krebs-Ringer-HEPES buffer (50 mM HEPES pH 7.4, 137 mM NaCl, 4.7 mM KCl, […], 1.3 mM MgSO4 and 0.1% w/v BSA) at 30°C to remove any residual sugar. RPMI medium without sugar containing the compound intended for treatment, was added to the cells for 15 min at 37°C to allow adequate interaction of the cells with the compound. The uptake measurement was initiated by adding an equal volume of medium containing radiolabeled 2DG. After 3 - 4 min incubation at 37°C, medium was aspirated and cells were gently washed three times with ice-cold Krebs-Ringer-HEPES buffer. Cells were lysed by adding 200 µL of ice-cold 0.1 M NaOH solution and incubating the plate for 10 min at 37°C. Cell lysates were transferred to scintillation vials for subsequent scintillation counting. For blank measurements, cells were incubated with 50 µM Cytochalasin B prior to the uptake measurement.

The test system of series [3] is A549 lung adenocarcinoma cells. In words: Glucose consumption and lactate production over 8 h, A549. It counts as cell-based, human. The following applies: A549, 25 µM, 1 mM glucose. How it is done: The influence of WBC compounds on glucose consumption over a longer time period was studied in the A549 adenocarcinoma and KMS-12-PE multiple myeloma cell lines. As such, different parameters needed to be optimized depending on whether cells were adherent or in suspension. As such, A549 cells were incubated at 125,000 cells/well in a 24-well plate in 300 µL RPMI medium for 8 h. For the KMS-12-PE cell line, 100,000 cells/well were incubated in 100 µL RPMI medium in a 96-well plate for 8 h. Medium was collected, spun down and HPLC-analyzed for measuring glucose and lactate levels. Metabolite levels were corrected for cell number, which always varied little over the span of 8 h. For every condition, at least 4 technical repeats were included.

In series [4] the test system is MCF10A breast epithelial cell line transformed with H-RAS^V12. In words: Growth and apoptosis of MCF10A H-RAS^V12 cells (IncuCyte). Type of series: cell-based, human. Conditions: MCF10A H-RAS^V12, 1 mM glucose, 25 µM. How it is done:
as §1

For the next series, the system named is female NMRI-nu mice. In words: In vivo toxicity and tolerability in mice. The following applies: for abnormalities / toxic effects in liver and other organs at autopsy: daily i.p., toxic effects at 20 mg/kg WBC-15C and at 20 and 10 mg/kg WBC-11C, not at lower doses; for loss in body weight: daily intraperitoneal injection, 5, 10 and 20 mg/kg; for AST/ALT ratio vs vehicle: sera after 20 days, 5, 10, 20 mg/kg daily i.p.; for blood glucose level vs vehicle: sera post-mortem after 20 days, 5, 10, 20 mg/kg daily i.p. The method, then: Warbicin ® in vivo toxicity and tolerability was examined by subjecting female NMRI-nu mice (12 weeks old) to daily intraperitoneal injection of either WBC-A, WBC-15C, WBC-4C or WBC-11C. Compounds were dosed at either 5 mg/kg, 10 mg/kg or 20 mg/kg over a period of 20 days. Three mice were used per condition. To evaluate toxicity, change in body weight was registered daily. As a humane endpoint, mice that lost more than 20% of their original body weight were prematurely sacrificed. In addition, liver function was examined by measuring the ratio of the AST to ALT enzyme activities (AbCam ab105135, ab105134) in sera samples collected at the end of the experiment. Furthermore, the blood glucose level in mice sera was determined using the colorimetric GOD-PAP method. Due to their considerable hydrophobicity, the compounds were dissolved in a sterilized 1xPBS, 5% DMSO and 5% Tween-80 solution until a homogenous suspension was obtained that could be administered in a reproducible way.

Series [5] in a line: Solubility of compound stocks. It counts as physicochemical. Conditions: 100% DMSO. How it is done:
WBC-A and the complete structural analog library ( Supplementary Table 2 ) were purchased from different vendors, i.e. Enamine (n = 185), Life Chemicals (n = 10), LabNetwork (n = 4) and Uorsy (n = 4). WBC compounds in general are very insoluble in aqueous solutions, challenging their solubilization. Throughout this work, WBC compounds were always stock aliquoted at 50 mM concentration in 100% DMSO. In many cases, gentle sonication and heating up to 37°C was necessary to completely solubilize the compound stocks. Whereas WBC-A, -15C, -4C and -11C could be dissolved at 50 mM, some structural analogs remained in smooth or rough suspension, regardless of the concentration. Even though it is recommended to aliquot compound stocks, no significant decrease in compound strength by repeated freeze and thaw cycles in DMSO was observed.

Series [6] has as its system A549 lung adenocarcinoma cells. Also on record: method as in PMID 22689530. The following applies: previously reported; ref [67]; cited from earlier work.

Regarding `Cc1nc(NCC(=O)NCc2ccco2)c2c(-c3ccccc3)csc2n1` [WBC-4C], the “Rescue of the tps1∆ strain on 2.5 mM glucose at 100 µM” value in the series on yeast tps1Δ strain is reported as “No”. Moreover, in series [1], the “Selected from primary screen for growth inhibition of A549 cells at 50 µM” value was “Yes”; the “relative potency in reducing maximal growth rate of A549 cells” value is reported as “intermediate potency”; the “Selected for having an IC50 ratio (10 mM glucose : 1 mM glucose) of A549 growth higher than WBC-A” value was “Higher IC50 ratio and confirmed”. Moreover, in series [2], the “type of inhibition of 2-deoxyglucose uptake (Lineweaver-Burk)” value is recorded as “noncompetitive” and the inhibitory constant (Ki) was found to be 26.8 µM. For the same compound, in series [2] (Dixon plot (Ki = K'i) or Cornish-Bowden plot (WBC-11C)), the “K'i for 2-deoxyglucose uptake” value was determined as 26.75 µM. The “inhibition of glucose consumption and lactate production” value in series [3] is “inhibited glucose consumption and lactate production”. The inhibition of proliferation entry in series [4] is given as “highest potency”. Further, the “abnormalities / toxic effects in liver and other organs at autopsy” value in the series with female NMRI-nu mice (20 days) was “No other abnormalities”. Moreover, the “loss in body weight” value with female NMRI-nu mice (nude mice, 20 days) is on record as “one single mouse treated with 20 mg/kg WBC-4C that was sacrificed at day 19 because of 20% weight loss”. In the series on female NMRI-nu mice, the “AST/ALT ratio vs vehicle” value was “No significant difference” and the “blood glucose level vs vehicle” value is “No significant difference”. In series [5], the “concentration at which compound could be dissolved” value is on record as ≥ 50 mM.

For `Cc1nc(NCC(=O)Nc2ccccc2Br)c2c(-c3cccs3)csc2n1` [WBC-15C], the “Rescue of the tps1∆ strain on 2.5 mM glucose at 100 µM” value in the series with yeast tps1Δ strain is “No”. Also, in series [1], the “Selected from primary screen for growth inhibition of A549 cells at 50 µM” value is listed as “Yes”; the “relative potency in reducing maximal growth rate of A549 cells” value is “least potent”; the “Selected for having an IC50 ratio (10 mM glucose : 1 mM glucose) of A549 growth higher than WBC-A” value was “Higher IC50 ratio and confirmed”. Moreover, in series [2], the “type of inhibition of 2-deoxyglucose uptake (Lineweaver-Burk)” value is reported as “competitive” and the Ki was found to be 33.8 µM. Moreover, in series [3], the “inhibition of glucose consumption and lactate production” value is “inhibited glucose consumption and lactate production”. Besides, the “abnormalities / toxic effects in liver and other organs at autopsy” value with female NMRI-nu mice (20 days) was “toxic effects were seen in the liver and other organs”. The “adipose tissue at autopsy” value in the series on female NMRI-nu mice (nude mice, daily i.p., 5, 10 and 20 mg/kg, 20 days, visual inspection vs vehicle) was “adipose tissue was also observed in between the intestines”. The “loss in body weight” value in the series with female NMRI-nu mice (nude mice, 20 days) was “no significant loss in body weight”. In the series with female NMRI-nu mice, the “AST/ALT ratio vs vehicle” value was “No significant difference” and the “blood glucose level vs vehicle” value is on record as “No significant difference”. Further, in series [5], the “concentration at which compound could be dissolved” value is reported as ≥ 50 mM.

On to `O=C(Oc1cccc(F)c1OC(=O)c1cccc(O)c1)c1cccc(O)c1` [WZB-117], for which the “inhibition of A549 proliferation” value in series [6] is “inhibition of its proliferation”.
